Data as given in publication PMC6980389 (Chembiochem : a European journal of chemical biology, 2018).
Where two headings read alike, the source gives them in different places.

Tests used:
U937 leukemia cells [1] = conditions: proliferation and attachment assays; ref 12b-e; cited from earlier work
U937 leukemia cells [2] = experiment: U937 cell attachment at 60 h, alone or with 10 nM PMA; type: cell-based; conditions: ligand alone
Toledo cells = experiment: Growth of Toledo cells; type: cell-based; conditions: 72 h; for IC50: read-out: IC50, growth inhibition of Toledo cells
PKCδ = PKCδ (Homo sapiens, UniProt Q05655); experiment: Downregulation of PKCδ in U937 cells; type: cell-based; conditions: 24 h
mCherry PKCδ = mCherry PKCδ (Homo sapiens, UniProt Q05655); experiment: Translocation of mCherry-tagged PKCδ in LNCaP cells; type: cell-based; conditions: 1 μM ligand
PKCβII = PKCβII (Homo sapiens, UniProt P05771); experiment: Downregulation of PKCβII in U937 cells; type: cell-based; conditions: 24 h
PKCβII, sequence (P05771 1-673 isoform P05771-2): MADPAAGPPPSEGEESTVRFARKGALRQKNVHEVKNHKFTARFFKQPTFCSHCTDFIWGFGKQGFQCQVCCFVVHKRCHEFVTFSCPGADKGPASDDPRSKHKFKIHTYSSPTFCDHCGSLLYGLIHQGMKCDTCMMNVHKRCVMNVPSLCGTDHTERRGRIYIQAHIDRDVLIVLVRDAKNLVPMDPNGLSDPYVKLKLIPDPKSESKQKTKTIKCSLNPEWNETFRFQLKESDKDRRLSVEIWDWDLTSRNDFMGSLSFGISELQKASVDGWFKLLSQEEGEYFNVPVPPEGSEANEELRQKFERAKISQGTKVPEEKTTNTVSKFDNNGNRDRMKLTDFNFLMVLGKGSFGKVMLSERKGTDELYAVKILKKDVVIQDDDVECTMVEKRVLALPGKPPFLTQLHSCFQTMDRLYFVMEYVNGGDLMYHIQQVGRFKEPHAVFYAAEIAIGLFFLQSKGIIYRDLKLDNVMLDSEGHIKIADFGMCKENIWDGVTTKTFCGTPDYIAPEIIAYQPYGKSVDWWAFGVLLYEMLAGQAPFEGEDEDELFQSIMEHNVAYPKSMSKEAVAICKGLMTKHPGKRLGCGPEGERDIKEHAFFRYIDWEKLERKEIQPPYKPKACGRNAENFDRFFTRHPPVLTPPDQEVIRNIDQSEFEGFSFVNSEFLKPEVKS

PKCδ, sequence (Q05655 whole entry): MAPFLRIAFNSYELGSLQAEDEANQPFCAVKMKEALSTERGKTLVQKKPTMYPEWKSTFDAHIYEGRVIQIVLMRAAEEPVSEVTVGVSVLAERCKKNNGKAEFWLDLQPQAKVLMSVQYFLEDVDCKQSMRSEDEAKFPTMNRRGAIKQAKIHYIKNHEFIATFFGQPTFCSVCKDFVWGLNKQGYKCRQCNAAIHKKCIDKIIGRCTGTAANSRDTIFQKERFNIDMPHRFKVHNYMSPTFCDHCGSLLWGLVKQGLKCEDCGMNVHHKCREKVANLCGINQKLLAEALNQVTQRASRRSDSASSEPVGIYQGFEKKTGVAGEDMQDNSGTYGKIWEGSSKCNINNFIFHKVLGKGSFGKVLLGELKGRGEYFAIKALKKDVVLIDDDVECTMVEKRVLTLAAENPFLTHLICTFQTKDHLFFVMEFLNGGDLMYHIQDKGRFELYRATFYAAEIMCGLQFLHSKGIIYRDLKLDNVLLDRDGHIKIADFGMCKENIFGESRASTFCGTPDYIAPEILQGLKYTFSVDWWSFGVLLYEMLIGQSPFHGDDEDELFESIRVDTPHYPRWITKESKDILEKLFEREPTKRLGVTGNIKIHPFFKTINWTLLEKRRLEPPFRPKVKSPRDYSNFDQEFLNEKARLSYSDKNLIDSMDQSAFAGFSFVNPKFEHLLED
mCherry PKCδ, sequence (Q05655 whole entry): as above

In the case of C=C1C[C@@H]2C[C@@H]3CC(=C)C[C@H](/C=C/C(C)(C)[C@]4(O)O[C@@H](C/C(=C\C(=O)OC)[C@@H]4OC(=O)/C=C/C=C/CCC)C[C@H]([C@@H](C)O)OC(=O)C[C@H](O)C[C@H](C1)O2)O3 [Merle 23], the “Pattern of biological activity in U937 cells (PMA-like or bryostatin-like)” value (“Pattern of biological activity” for short) (U937 leukemia cells [1]) is listed as “largely PMA-like”, the “Effect on attachment of U937 cells” value (U937 leukemia cells [2]) is listed as “induced attachment” and the IC50 (Toledo cells) is listed as 0.33 ± 0.11 nM. For the same molecule, the “Downregulation of PKCδ” value (PKCδ) was “less potent than Merle 45 for downregulation but again showed no protection of PKCδ downregulation at high doses”.

In the case of C=C1C[C@H]2C[C@H]3C[C@@H](OC(C)=O)C[C@@H](C[C@@H](O)CC(=O)O[C@@H]([C@@H](C)O)C[C@@H]4C/C(=C\C(=O)OC)[C@H](OC(=O)CCCCCCC)[C@@](O)(O4)C(C)(C)/C=C/[C@@H](C1)O2)O3 [Merle 27], the “Pattern of biological activity” value (U937 leukemia cells [1]) is given as “PMA-like”.

For C=C1C[C@H]2CC3(O)O[C@H](C[C@@H](O)CC(=O)O[C@@H]([C@@H](C)O)C[C@@H]4C/C(=C\C(=O)OC)[C@H](OC(=O)/C=C/C=C/CCC)[C@@](O)(O4)C(C)(C)/C=C/[C@@H](C1)O2)C[C@H](OC(C)=O)C3(C)C [Merle 28], the “Pattern of biological activity” value (U937 leukemia cells [1]) is given as “bryostatin-like”, the “Effect on attachment of U937 cells” value (U937 leukemia cells [2]) is given as “did not inhibit proliferation (Figure 1) or induce attachment” and the IC50 (Toledo cells) is given as 0.111 ± 0.009 nM.

In the case of CCCCCCCCCCCCCC(=O)O[C@@H]1[C@@H](C)[C@@]2(O)[C@@H](C=C(CO)C[C@]3(O)C(=O)C(C)=C[C@@H]23)[C@@H]2C(C)(C)[C@]12OC(C)=O [PMA, phorbol 12-myristate 13-acetate], the “Effect on attachment of U937 cells” value (U937 leukemia cells [2]) is reported as “induced attachment”, the “Effect on Toledo cell growth” value (Toledo cells) is reported as “inhibited Toledo cell growth” and the IC50 (Toledo cells; Homo sapiens, Toledo) is reported as 0.57 ± 0.27 nM. For the same molecule, the “Translocation of PKCδ” value (mCherry PKCδ) was “characteristic translocation of PKCδ to the plasma and nuclear membranes, as well as to internal membranes” and the “Downregulation of PKCβII” value (PKCβII) was “downregulated PKCβII at 24 h”.

In the case of CCC/C=C/C=C/C(=O)O[C@H]1/C(=C/C(=O)OC)C[C@H]2C[C@H]([C@@H](C)O)OC(=O)C[C@H](O)C[C@@H]3C[C@H](OC(C)=O)C(C)(C)[C@](O)(C[C@@H]4C/C(=C/C(=O)OC)C[C@H](/C=C/C(C)(C)[C@]1(O)O2)O4)O3 [bryostatin 1], the “Effect on attachment of U937 cells” value (U937 leukemia cells [2]) is reported as “did not inhibit proliferation (Figure 1) or induce attachment”, the “Effect on Toledo cell growth” value (Toledo cells) is reported as “inhibited Toledo cell growth” and the IC50 (Toledo cells; Homo sapiens, Toledo) is reported as 0.091 ± 0.026 nM.
